In patent publication US6861528B2, “Carboxylated heterocyclic compounds and methods of synthesis” (R.T. Alamo Ventures I, LLC, priority 2002, dated 2005):

Test system: Protein Serine/Threonine Kinase PKC, non-selective
Assay: Protein Serine/Threonine Kinase PKC, non-selective enzyme assay ([32P]histone quantitated)
Format: biochemical
Conditions: 1% DMSO vehicle, rat brain enzyme, histone substrate
Description: In this example, carboxyflosequinan was subjected to biochemical enzyme assays and radioligand binding assays to determine its percent inhibition of a variety of enzyme activities. Tamaoki and Nakano “Potent and specific inhibitors of protein kinase C of microbial origin” Biotechnology 8:732 (1990); Wilkinson et al. “Isoenzyme specificity of bisindolymaleimides, selective inhibitors of protein kinase C” Biochem. J. 294:335 (1993); Tamaki et al. “Staurosporine, a potent inhibitor of phospholipid/Ca++ dependent protein kinase” Biochem. Biophys. Res. Comm, 135:397 (1986). A brief summary of the conditions for each assay is provided below:
Protein Serine/Threonine Kinase PKC, non-selective: The enzyme was obtained from rat brain and the substrate was 370 μg/ml histone. The reaction was pre-incubated 5 min at 25° C., followed by a 15 min incubation at 25° C. in a buffer of 20 mM Tris-HCl, […] and 0.1 mM CaCl2.2HO, pH 7.4. [^32P]histone was quantitated.
FIG. 3 projects data for carboxyflosequinan in the assays described above. In these protein kinase assays, carboxyflosequinan was used in varying concentrations (in 1% DMSO as the vehicle). For the protein serine/threonine kinase (PKC, non-selective), carboxyflosequinan was tested at a concentrations of 100 μM, 300 μM, and 1000 μM. […] (See, FIG. 3).

Measured: inhibition of protein serine/threonine kinase (PKC, non-selective)

Cn1cc([S+]([O-])CC(=O)O)c(=O)c2ccc(F)cc21 (stereo not drawn) [carboxyflosequinan, 3-carboxymethylsulfinyl-7-fluoro-1-methyl-4-quinolone]
greater than 50%: 100 μM carboxyflosequinan | 300 μM carboxyflosequinan | 1000 μM carboxyflosequinan
